Consider four molecules from ChEMBL document CHEMBL1201862, “PubChem BioAssay data set” (2004).

One assay has as its target T1, Protein RecA (Mycobacterium tuberculosis, UniProt P9WHJ3).
T1 sequence (P9WHJ3 whole entry): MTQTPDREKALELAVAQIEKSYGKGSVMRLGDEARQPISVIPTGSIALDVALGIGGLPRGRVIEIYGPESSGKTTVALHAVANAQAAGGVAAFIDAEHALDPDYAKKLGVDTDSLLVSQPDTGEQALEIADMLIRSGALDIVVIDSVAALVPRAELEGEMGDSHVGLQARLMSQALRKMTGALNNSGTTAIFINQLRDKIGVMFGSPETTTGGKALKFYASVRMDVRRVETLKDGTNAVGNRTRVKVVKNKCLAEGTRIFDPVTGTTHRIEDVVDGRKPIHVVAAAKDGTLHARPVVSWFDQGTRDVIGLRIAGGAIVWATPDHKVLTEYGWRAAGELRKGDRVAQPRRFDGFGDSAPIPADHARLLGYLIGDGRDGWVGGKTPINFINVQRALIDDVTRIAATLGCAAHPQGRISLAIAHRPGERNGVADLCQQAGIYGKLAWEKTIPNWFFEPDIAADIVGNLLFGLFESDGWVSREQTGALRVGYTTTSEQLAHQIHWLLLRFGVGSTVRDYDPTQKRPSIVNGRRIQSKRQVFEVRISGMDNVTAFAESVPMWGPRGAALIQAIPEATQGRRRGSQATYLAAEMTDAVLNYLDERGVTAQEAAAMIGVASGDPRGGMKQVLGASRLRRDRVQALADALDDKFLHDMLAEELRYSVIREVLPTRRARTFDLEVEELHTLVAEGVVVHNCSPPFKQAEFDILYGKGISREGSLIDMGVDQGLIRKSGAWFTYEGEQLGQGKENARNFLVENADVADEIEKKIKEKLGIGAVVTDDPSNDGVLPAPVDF
Kind of assay: Fluorescence Cell-Free Homogeneous Dose Retest to Identify Inhibitors of RecA-Intein Splicing Activity. [Related pubchem assays (depositor defined):AID2097, AID2223, AID489010, AID492950]. Format: functional.

The next assay has as its target T2, ORF 73 (Human herpesvirus 8, UniProt O40947).
T2 sequence (O40947 whole entry): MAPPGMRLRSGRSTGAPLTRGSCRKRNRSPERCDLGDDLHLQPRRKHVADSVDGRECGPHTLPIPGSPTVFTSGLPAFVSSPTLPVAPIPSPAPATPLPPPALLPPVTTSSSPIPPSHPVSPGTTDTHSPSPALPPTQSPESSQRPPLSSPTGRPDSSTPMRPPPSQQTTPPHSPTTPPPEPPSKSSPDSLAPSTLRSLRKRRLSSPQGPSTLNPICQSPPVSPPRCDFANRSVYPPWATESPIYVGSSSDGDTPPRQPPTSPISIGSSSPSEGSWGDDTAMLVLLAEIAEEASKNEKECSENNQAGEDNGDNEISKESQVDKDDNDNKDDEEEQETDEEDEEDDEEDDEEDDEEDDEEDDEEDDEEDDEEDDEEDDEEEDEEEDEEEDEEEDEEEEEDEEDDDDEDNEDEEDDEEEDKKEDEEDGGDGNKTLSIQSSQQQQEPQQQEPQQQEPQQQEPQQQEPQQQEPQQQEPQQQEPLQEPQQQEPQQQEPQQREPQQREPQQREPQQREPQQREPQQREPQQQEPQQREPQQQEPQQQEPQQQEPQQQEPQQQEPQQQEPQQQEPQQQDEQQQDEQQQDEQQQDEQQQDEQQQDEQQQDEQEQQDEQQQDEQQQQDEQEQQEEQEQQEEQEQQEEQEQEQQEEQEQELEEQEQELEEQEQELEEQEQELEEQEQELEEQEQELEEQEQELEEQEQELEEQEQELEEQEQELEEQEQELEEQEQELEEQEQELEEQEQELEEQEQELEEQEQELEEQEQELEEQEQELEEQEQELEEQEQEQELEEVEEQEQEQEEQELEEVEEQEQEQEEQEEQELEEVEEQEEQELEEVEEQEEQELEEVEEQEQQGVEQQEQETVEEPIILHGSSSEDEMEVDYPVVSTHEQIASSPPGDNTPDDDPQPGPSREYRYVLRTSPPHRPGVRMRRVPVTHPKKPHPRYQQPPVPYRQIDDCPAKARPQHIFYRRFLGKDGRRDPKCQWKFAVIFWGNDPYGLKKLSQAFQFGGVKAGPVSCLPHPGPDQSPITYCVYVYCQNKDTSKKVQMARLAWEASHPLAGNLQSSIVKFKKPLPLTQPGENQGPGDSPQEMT
Kind of assay: inhibitors of C-LANA binding to LBS DNA, dose response, biochemical, fluorescence polarization, cherry-picked samples (AID 504725).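 Note: fluorescence polarization of a labeled DNA duplex reporting LANA DNA binding; potency is for inhibitors that block LANA binding to the DNA.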 Details: species or system Human gammaherpesvirus 8. (In general: Fluorescence polarisation rises when a labelled molecule tumbles more slowly, as on binding a larger partner.)

A further assay has as its target Cysteine protease ATG4B (Homo sapiens, UniProt Q9Y4P1). It is filed as functional.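 Note: Fluorescence-based dose-response confirmation assay measuring inhibition of ATG4B activity.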
Assay [1] has as its target Receptor tyrosine-protein kinase erbB-2 (Homo sapiens, UniProt P04626). Nature of the assay: Navigating the Kinome. Panel member name: ERBB2. Format: functional.
Assay [2] concerns the target MAP kinase-activated protein kinase 2 (Homo sapiens, UniProt P49137). It is filed as functional.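 Note: measured as one member of a kinome-wide kinase panel.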
Assay [3] has as its target 3-phosphoinositide-dependent protein kinase 1 (Homo sapiens, UniProt O15530). It is filed as functional.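 Note: value comes from the Navigating the Kinome panel, PDPK1 member.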
The target of another assay is Ephrin type-A receptor 2 (Homo sapiens, UniProt P29317). It is filed as functional.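 Note: EPHA2 tested as one member of a kinome-wide kinase panel.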
Ephrin type-A receptor 2, sequence (P29317 whole entry): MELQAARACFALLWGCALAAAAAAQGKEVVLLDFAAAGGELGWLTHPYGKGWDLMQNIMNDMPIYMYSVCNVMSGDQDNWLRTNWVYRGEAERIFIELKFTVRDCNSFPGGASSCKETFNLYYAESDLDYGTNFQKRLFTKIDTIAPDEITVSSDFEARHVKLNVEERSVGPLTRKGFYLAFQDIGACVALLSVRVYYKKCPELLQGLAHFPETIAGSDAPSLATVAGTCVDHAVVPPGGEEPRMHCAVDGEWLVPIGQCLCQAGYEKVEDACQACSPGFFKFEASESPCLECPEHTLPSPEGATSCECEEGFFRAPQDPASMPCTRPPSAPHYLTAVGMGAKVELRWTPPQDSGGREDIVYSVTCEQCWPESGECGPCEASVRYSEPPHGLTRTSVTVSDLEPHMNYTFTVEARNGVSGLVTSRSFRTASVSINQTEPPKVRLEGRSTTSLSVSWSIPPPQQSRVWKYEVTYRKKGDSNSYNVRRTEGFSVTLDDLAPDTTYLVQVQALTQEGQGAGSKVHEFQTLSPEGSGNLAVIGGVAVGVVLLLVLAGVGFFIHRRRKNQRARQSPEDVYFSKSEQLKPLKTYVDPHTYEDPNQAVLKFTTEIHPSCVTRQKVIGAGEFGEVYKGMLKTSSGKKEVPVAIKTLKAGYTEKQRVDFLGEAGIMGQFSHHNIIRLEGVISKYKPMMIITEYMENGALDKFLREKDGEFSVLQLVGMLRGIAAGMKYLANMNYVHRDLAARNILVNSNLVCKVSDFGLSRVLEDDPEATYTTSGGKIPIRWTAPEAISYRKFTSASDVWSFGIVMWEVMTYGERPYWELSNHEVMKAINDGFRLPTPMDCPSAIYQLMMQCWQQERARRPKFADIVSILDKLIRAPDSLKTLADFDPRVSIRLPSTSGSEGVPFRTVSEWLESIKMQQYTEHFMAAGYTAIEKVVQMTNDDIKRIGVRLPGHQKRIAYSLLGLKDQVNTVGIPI
For assay [4], the target named is Proto-oncogene tyrosine-protein kinase Src (Homo sapiens, UniProt P12931). Format: functional.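 Note: SRC entry within a kinome-wide kinase profiling panel.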
Proto-oncogene tyrosine-protein kinase Src, sequence (P12931 2-536 limits assumed): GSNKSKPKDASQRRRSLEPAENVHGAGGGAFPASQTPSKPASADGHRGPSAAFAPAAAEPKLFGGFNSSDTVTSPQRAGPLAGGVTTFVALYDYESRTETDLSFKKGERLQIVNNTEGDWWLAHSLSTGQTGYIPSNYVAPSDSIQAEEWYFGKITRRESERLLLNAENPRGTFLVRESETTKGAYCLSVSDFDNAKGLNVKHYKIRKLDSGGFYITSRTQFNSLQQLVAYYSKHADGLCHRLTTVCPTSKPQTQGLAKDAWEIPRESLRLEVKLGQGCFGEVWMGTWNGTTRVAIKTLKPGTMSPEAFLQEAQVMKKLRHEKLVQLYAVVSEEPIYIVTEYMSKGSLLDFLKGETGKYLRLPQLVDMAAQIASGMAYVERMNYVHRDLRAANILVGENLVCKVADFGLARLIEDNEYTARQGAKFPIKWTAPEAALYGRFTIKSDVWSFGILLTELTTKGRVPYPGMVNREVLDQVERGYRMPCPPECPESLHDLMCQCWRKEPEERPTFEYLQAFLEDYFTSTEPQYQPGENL
Assay [5] addresses Calcium/calmodulin-dependent protein kinase type II subunit alpha (Homo sapiens, UniProt Q9UQM7). Nature of the assay: Navigating the Kinome. Panel member name: CAMK2A. It is filed as functional.
For assay [6], the target named is Mitogen-activated protein kinase kinase kinase kinase 4 (Homo sapiens, UniProt O95819). It is filed as functional.
Mitogen-activated protein kinase kinase kinase kinase 4, sequence (O95819 whole entry): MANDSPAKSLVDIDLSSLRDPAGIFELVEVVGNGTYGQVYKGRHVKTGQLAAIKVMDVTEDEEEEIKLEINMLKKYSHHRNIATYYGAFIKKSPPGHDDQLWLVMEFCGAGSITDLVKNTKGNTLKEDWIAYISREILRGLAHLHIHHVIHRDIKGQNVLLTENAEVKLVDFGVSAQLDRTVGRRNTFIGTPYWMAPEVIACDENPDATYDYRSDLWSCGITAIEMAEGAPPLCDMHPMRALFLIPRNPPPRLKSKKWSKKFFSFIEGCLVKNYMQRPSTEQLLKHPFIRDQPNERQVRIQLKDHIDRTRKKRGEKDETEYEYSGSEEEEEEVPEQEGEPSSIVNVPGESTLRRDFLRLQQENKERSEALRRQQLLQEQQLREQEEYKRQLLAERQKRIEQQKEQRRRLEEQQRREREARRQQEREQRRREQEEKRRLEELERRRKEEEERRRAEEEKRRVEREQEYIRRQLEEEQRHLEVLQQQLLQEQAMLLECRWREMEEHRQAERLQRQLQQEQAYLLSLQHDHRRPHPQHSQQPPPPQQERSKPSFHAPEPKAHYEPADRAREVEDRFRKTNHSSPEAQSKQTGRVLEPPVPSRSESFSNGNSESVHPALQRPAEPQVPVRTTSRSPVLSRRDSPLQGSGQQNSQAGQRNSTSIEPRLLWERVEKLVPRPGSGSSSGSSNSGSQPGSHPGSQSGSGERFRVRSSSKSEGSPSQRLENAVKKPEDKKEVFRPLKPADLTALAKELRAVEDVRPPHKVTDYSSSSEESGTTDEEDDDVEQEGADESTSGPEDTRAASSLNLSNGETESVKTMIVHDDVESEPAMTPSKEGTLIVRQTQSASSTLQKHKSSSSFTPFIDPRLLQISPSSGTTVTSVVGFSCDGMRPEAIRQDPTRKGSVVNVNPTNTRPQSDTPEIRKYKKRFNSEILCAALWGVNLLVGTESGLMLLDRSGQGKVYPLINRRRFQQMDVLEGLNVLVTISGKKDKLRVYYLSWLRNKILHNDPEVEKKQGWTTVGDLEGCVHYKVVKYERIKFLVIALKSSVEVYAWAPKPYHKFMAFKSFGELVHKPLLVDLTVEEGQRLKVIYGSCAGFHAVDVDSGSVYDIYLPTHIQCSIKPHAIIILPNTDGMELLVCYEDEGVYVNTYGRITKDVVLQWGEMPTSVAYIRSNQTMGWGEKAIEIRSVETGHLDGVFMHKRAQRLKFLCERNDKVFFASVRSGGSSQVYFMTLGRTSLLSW
The target of assay [7] is Serine/threonine-protein kinase TBK1 (Homo sapiens, UniProt Q9UHD2). Nature of the assay: Navigating the Kinome. Panel member name: TBK1. Format: functional.
Assay [8] has as its target Tyrosine-protein kinase receptor TYRO3 (Homo sapiens, UniProt Q06418). Format: functional.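 Note: TYRO3 value obtained as one member of a kinome-wide profiling panel.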

The source made the active and inactive calls.

MAP kinase-activated protein kinase 2, sequence (P49137 whole entry): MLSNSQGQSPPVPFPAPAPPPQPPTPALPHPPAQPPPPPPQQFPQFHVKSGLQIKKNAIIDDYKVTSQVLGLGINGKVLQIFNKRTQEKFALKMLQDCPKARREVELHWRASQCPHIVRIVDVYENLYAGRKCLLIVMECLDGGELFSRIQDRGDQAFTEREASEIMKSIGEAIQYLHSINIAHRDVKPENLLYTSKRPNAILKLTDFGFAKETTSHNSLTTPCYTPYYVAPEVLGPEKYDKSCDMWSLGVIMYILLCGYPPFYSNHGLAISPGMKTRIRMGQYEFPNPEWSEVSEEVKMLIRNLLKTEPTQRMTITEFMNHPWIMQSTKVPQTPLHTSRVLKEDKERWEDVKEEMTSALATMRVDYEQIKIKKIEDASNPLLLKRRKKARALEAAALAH
Cysteine protease ATG4B, sequence (Q9Y4P1 whole entry): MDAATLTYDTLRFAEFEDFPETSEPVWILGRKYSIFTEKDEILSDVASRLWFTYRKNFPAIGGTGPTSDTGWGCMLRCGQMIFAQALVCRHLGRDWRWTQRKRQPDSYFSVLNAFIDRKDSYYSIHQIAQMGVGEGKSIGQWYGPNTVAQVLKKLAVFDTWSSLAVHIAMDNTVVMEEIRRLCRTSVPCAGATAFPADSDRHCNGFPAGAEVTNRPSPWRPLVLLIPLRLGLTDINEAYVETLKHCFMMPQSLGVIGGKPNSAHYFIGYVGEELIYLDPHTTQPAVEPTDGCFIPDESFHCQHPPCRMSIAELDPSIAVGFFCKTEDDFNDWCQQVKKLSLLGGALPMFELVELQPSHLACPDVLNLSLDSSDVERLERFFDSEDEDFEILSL
3-phosphoinositide-dependent protein kinase 1, sequence (O15530 whole entry): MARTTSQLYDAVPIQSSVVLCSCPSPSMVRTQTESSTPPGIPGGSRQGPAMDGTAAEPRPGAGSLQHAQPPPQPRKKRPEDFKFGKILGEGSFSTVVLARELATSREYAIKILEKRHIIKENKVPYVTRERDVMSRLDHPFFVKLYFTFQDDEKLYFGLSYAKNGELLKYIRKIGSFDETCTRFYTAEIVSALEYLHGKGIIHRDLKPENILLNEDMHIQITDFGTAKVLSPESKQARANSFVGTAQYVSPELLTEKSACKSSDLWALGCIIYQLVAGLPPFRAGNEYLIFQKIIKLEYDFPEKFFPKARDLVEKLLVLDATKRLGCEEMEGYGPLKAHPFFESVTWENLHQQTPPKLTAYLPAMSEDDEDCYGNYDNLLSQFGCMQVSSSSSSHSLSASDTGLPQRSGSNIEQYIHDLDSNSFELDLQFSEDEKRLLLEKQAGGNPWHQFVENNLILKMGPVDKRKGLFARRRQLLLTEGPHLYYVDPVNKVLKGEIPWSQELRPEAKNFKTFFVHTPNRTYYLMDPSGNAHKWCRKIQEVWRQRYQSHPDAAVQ
Tyrosine-protein kinase receptor TYRO3, sequence (Q06418 whole entry): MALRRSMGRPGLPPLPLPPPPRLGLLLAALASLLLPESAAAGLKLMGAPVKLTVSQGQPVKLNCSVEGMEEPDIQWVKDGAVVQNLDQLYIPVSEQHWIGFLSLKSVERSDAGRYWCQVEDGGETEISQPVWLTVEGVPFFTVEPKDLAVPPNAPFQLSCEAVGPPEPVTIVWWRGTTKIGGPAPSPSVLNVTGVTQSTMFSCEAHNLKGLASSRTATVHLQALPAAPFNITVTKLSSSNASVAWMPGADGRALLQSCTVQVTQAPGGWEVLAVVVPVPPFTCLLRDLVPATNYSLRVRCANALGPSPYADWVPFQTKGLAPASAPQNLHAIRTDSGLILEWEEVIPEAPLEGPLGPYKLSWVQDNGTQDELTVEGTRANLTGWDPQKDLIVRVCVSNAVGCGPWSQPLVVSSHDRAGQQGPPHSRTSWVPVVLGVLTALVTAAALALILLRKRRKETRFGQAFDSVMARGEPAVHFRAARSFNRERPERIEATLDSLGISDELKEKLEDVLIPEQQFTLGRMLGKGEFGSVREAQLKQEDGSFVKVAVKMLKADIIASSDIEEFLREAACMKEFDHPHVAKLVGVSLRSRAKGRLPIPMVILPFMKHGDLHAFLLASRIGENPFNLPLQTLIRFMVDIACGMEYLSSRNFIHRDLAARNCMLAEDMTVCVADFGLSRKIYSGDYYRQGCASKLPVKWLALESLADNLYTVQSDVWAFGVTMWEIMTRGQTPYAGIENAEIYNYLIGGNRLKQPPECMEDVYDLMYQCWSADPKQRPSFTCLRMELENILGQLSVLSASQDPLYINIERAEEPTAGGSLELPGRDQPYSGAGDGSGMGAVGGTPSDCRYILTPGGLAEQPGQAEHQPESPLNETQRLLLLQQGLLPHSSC

Take `O=C1C=C(NCc2ccccc2)c2ccccc2C1=O`: the EC50 on Protein RecA is 0.774 µM (active).

Turning to `O=C(O)c1[nH]c2ccccc2c1C(c1cc(Cl)cc([N+](=O)[O-])c1O)c1c(C(=O)O)[nH]c2ccccc12`, the AC50 on ORF 73 was 88.1 µM (active). Moreover, the IC50 on Cysteine protease ATG4B was 3.46 µM (active).

In the case of `CCOC(=O)c1cn(-c2ccc(O)cc2C)c2cc(-c3ccncc3)ccc2c1=O`, the Ki in assay [1] is > 1.58 µM (inactive); in assay [2], > 7.94 µM (inactive); in assay [3], > 3.98 µM (inactive); at Ephrin type-A receptor 2 it was > 3.16 µM (inactive); in assay [4], > 5.01 µM (inactive).

For `Cc1cc(=O)[nH]nc1-c1ccc(NC(=O)Nc2cc(C(F)(F)F)ccc2F)c(Cl)c1`, the Ki in assay [5] is > 3.98 µM (inactive); in [6] it was > 5.01 µM (inactive); in [7], > 3.16 µM (inactive); in assay [8], > 3.16 µM (inactive).

Broadly, the EC50 is the concentration needed to bring the measured effect to its halfway point. What is called AC50 is the concentration at which the activity in the assay is half-maximal. In general, IC50 refers to the midpoint of a concentration-inhibition curve. By Ki is commonly meant the dissociation constant of the complex between target and ligand, obtained from inhibition or displacement.
